Series [1] deals with T1, porcine CCK-1 receptor (Sus scrofa, UniProt I3LFK5).
T1 construct: expressed in transfected cells; host or cells: COS-7
T1 sequence (I3LFK5 1-428): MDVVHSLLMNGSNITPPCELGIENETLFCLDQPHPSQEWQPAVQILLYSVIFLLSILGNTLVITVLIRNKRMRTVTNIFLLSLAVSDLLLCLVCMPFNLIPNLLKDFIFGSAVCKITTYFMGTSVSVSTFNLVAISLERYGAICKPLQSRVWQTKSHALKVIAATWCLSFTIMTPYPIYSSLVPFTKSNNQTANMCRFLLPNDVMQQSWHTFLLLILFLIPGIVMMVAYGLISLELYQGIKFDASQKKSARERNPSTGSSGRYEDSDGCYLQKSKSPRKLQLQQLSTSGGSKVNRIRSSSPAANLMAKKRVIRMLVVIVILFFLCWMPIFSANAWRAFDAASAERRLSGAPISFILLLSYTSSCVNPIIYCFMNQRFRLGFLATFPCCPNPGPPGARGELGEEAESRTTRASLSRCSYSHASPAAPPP
As to the kind of experiment: biochemical. The following applies: pig CCK-1 receptor over-expressed in COS-7 cells, SPA, n = 3; read-out: Binding Mean IC50.

The target in series [2] is T1, porcine CCK-1 receptor. The series can be described thus: cell-based. The following applies: pig CCK-1 receptor in COS-7 cells, IP-One, n = 3; read-out: Activation Mean EC50.
The next series addresses T2, porcine CCK-2 receptor (Sus scrofa, UniProt A0A287A2K5).
T2 construct: expressed in transfected cells; host or cells: COS-7
As to the kind of experiment: cell-based. The following applies: pig CCK-2 receptor in COS-7 cells, IP-One, n = 3; highest dose tested 100 nM; read-out: Activation Mean EC50.

For series [3] the following is noted: obese humans, after 24 weeks of treatment; cited from earlier work.
Details of series [4]: method as in PMID 7084608. The following applies: cited from earlier work.

This is an account of results in publication PMC6997118, “Long-acting CCK analogue NN9056 lowers food intake and body weight in obese Göttingen Minipigs” (International Journal of Obesity (2005), 2019).

The term IC50 denotes the concentration at which inhibition is half-maximal. In general, EC50 refers to the concentration giving half of the maximal effect.

T2 sequence (A0A287A2K5 whole entry): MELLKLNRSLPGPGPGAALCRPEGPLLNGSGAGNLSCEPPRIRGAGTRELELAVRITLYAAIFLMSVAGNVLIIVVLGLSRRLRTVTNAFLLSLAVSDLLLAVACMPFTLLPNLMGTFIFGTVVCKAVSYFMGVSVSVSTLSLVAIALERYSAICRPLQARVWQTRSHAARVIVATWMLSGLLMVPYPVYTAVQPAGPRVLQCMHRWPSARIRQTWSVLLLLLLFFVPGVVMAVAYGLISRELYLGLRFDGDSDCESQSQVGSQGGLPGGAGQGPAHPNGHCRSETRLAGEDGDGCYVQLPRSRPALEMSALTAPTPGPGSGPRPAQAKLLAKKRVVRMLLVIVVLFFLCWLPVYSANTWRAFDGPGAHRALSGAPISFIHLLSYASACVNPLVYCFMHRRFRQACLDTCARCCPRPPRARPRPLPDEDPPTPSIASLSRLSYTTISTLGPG

For `CSCC[C@H](NC(=O)[C@H](Cc1ccc(OS(=O)(=O)O)cc1)NC(=O)[C@@H](N)CC(=O)O)C(=O)NCC(=O)N[C@@H](Cc1c[nH]c2ccccc12)C(=O)N[C@@H](CCSC)C(=O)N[C@@H](CC(=O)O)C(=O)N[C@@H](Cc1ccccc1)C(N)=O` [CCK-8], the concentration for half-maximal inhibition (IC50) on porcine CCK-1 receptor [1] is 0.199 nM. Moreover, the EC50 at porcine CCK-1 receptor [2] amounted to 0.221 nM; at porcine CCK-2 receptor, 0.325 nM.

In the case of `CC(C)N(C(=O)CN1C(=O)[C@H](NC(=O)Nc2cccc(C(=O)O)c2)C(=O)N(c2ccccc2)c2ccccc21)c1ccccc1` [GI181771X], the Weight loss entry in series [3] is on record as “failed to induce weight loss”. On to Cholecystokinin [CCK], for which, in series [4], the Circulating half-life is reported as < 5 min.
